Experimental data published in the CheMixHub ionic liquid set.

Assay: xn = mol fraction of the nth substance listed

CCCCCCCC[n+]1ccccc1.[Br-] + C[C@H](N)C(=O)O + O
100 kPa
Settings | electrical conductivity [S/m]
288.15 K, x2 = 0.0008949, x1 = 0.005855 | 1.24
288.15 K, x2 = 0.000895, x1 = 0.005791 | 1.23
288.15 K, x2 = 0.0008952, x1 = 0.005507 | 1.2
288.15 K, x2 = 0.0008955, x1 = 0.005201 | 1.17
288.15 K, x2 = 0.0008958, x1 = 0.004877 | 1.14
288.15 K, x2 = 0.0008961, x1 = 0.004522 | 1.1
288.15 K, x2 = 0.0008965, x1 = 0.004131 | 1.04
288.15 K, x2 = 0.0008969, x1 = 0.003704 | 0.975
288.15 K, x2 = 0.0008973, x1 = 0.003232 | 0.884
288.15 K, x2 = 0.0008977, x1 = 0.002757 | 0.789
288.15 K, x2 = 0.0008982, x1 = 0.002255 | 0.678
288.15 K, x2 = 0.0008984, x1 = 0.001938 | 0.603
288.15 K, x2 = 0.0008988, x1 = 0.001556 | 0.507
288.15 K, x2 = 0.0008991, x1 = 0.001181 | 0.405
288.15 K, x2 = 0.0008995, x1 = 0.0007571 | 0.288
288.15 K, x2 = 0.001794, x1 = 0.002782 | 0.753
288.15 K, x2 = 0.001795, x1 = 0.002177 | 0.623
288.15 K, x2 = 0.001796, x1 = 0.001292 | 0.412
288.15 K, x2 = 0.001796, x1 = 0.001777 | 0.532
288.15 K, x2 = 0.001797, x1 = 0.0008214 | 0.291
293.15 K, x2 = 0.0008949, x1 = 0.005848 | 1.41
293.15 K, x2 = 0.000895, x1 = 0.005786 | 1.4
293.15 K, x2 = 0.0008952, x1 = 0.005501 | 1.37
293.15 K, x2 = 0.0008955, x1 = 0.005196 | 1.33
293.15 K, x2 = 0.0008958, x1 = 0.004871 | 1.29
293.15 K, x2 = 0.0008961, x1 = 0.004517 | 1.25
293.15 K, x2 = 0.0008965, x1 = 0.004128 | 1.18
293.15 K, x2 = 0.0008969, x1 = 0.003703 | 1.1
293.15 K, x2 = 0.0008973, x1 = 0.003228 | 1
293.15 K, x2 = 0.0008977, x1 = 0.002756 | 0.894
293.15 K, x2 = 0.0008982, x1 = 0.002254 | 0.766
293.15 K, x2 = 0.0008984, x1 = 0.001937 | 0.68
293.15 K, x2 = 0.0008988, x1 = 0.001555 | 0.568
293.15 K, x2 = 0.0008991, x1 = 0.001179 | 0.455
293.15 K, x2 = 0.0008995, x1 = 0.0007571 | 0.334
293.15 K, x2 = 0.001794, x1 = 0.00278 | 0.851
293.15 K, x2 = 0.001795, x1 = 0.002175 | 0.705
293.15 K, x2 = 0.001796, x1 = 0.001292 | 0.464
293.15 K, x2 = 0.001796, x1 = 0.001777 | 0.602
293.15 K, x2 = 0.001797, x1 = 0.0008196 | 0.325
298.15 K, x2 = 0.0008949, x1 = 0.005843 | 1.59
298.15 K, x2 = 0.000895, x1 = 0.005779 | 1.58
298.15 K, x2 = 0.0008952, x1 = 0.005494 | 1.54
298.15 K, x2 = 0.0008955, x1 = 0.005188 | 1.5
298.15 K, x2 = 0.0008958, x1 = 0.004866 | 1.45
298.15 K, x2 = 0.0008961, x1 = 0.004511 | 1.4
298.15 K, x2 = 0.0008965, x1 = 0.004122 | 1.32
298.15 K, x2 = 0.0008969, x1 = 0.003697 | 1.24
298.15 K, x2 = 0.0008973, x1 = 0.003225 | 1.12
298.15 K, x2 = 0.0008977, x1 = 0.002752 | 1
298.15 K, x2 = 0.0008982, x1 = 0.002252 | 0.857
298.15 K, x2 = 0.0008984, x1 = 0.001935 | 0.762
298.15 K, x2 = 0.0008988, x1 = 0.001553 | 0.633
298.15 K, x2 = 0.0008991, x1 = 0.001178 | 0.509
298.15 K, x2 = 0.0008995, x1 = 0.0007571 | 0.36
298.15 K, x2 = 0.001794, x1 = 0.002776 | 0.953
298.15 K, x2 = 0.001795, x1 = 0.002171 | 0.788
298.15 K, x2 = 0.001796, x1 = 0.00129 | 0.518
298.15 K, x2 = 0.001796, x1 = 0.001774 | 0.671
298.15 K, x2 = 0.001797, x1 = 0.0008196 | 0.36
303.15 K, x2 = 0.0008949, x1 = 0.005838 | 1.78
303.15 K, x2 = 0.000895, x1 = 0.005773 | 1.77
303.15 K, x2 = 0.0008952, x1 = 0.005489 | 1.73
303.15 K, x2 = 0.0008955, x1 = 0.005185 | 1.68
303.15 K, x2 = 0.0008958, x1 = 0.004861 | 1.62
303.15 K, x2 = 0.0008961, x1 = 0.004508 | 1.56
303.15 K, x2 = 0.0008965, x1 = 0.004119 | 1.48
303.15 K, x2 = 0.0008969, x1 = 0.003694 | 1.38
303.15 K, x2 = 0.0008973, x1 = 0.003221 | 1.25
303.15 K, x2 = 0.0008977, x1 = 0.002748 | 1.11
303.15 K, x2 = 0.0008982, x1 = 0.002248 | 0.952
303.15 K, x2 = 0.0008984, x1 = 0.001933 | 0.834
303.15 K, x2 = 0.0008988, x1 = 0.001553 | 0.687
303.15 K, x2 = 0.0008991, x1 = 0.001178 | 0.563
303.15 K, x2 = 0.0008995, x1 = 0.0007553 | 0.418
303.15 K, x2 = 0.001794, x1 = 0.002774 | 1.06
303.15 K, x2 = 0.001795, x1 = 0.002169 | 0.875
303.15 K, x2 = 0.001796, x1 = 0.001289 | 0.574
303.15 K, x2 = 0.001796, x1 = 0.001774 | 0.741
303.15 K, x2 = 0.001797, x1 = 0.0008196 | 0.4
308.15 K, x2 = 0.000895, x1 = 0.005759 | 2.02
308.15 K, x2 = 0.000895, x1 = 0.005823 | 2.04
308.15 K, x2 = 0.0008953, x1 = 0.005478 | 1.95
308.15 K, x2 = 0.0008955, x1 = 0.005172 | 1.88
308.15 K, x2 = 0.0008958, x1 = 0.00485 | 1.8
308.15 K, x2 = 0.0008961, x1 = 0.004497 | 1.72
308.15 K, x2 = 0.0008965, x1 = 0.00411 | 1.63
308.15 K, x2 = 0.0008969, x1 = 0.003686 | 1.51
308.15 K, x2 = 0.0008973, x1 = 0.003214 | 1.36
308.15 K, x2 = 0.0008977, x1 = 0.002743 | 1.2
308.15 K, x2 = 0.0008982, x1 = 0.002245 | 1.02
308.15 K, x2 = 0.0008984, x1 = 0.001928 | 0.908
308.15 K, x2 = 0.0008988, x1 = 0.001549 | 0.78
308.15 K, x2 = 0.0008991, x1 = 0.001174 | 0.643
308.15 K, x2 = 0.0008995, x1 = 0.0007535 | 0.488
308.15 K, x2 = 0.001794, x1 = 0.002767 | 1.15
308.15 K, x2 = 0.001795, x1 = 0.002166 | 0.937
308.15 K, x2 = 0.001796, x1 = 0.001287 | 0.631
308.15 K, x2 = 0.001796, x1 = 0.001768 | 0.805
308.15 K, x2 = 0.001797, x1 = 0.0008178 | 0.46

CC[NH3+].O=[N+]([O-])[O-] + C[N+](=O)[O-]
298.15 K, 101 kPa
Settings | electrical conductivity [S/m] | viscosity [mPa·s]
x1 = 0.0084 | 0.0847 | 0.671
x2 = 0 | 2.27 | 37.5
x2 = 0.5996 | 2.42 | 5.95
